System: subjects with moderate-to-severe plaque psoriasis
Test: Safety, adverse events, Example 2 through Week 56
Assay type: in vivo, human
Excerpt: The LTE safety analysis was based on randomized participants in Example who entered the present long-term extension study and received at least one dose of study intervention (including a partial dose) during the study period.

[1] = 25 mg QD, Week 16 through Week 56

CC(=O)NCCCC[C@@H]1NC(=O)[C@H](Cc2c[nH]c3c(C)cccc23)NC(=O)[C@H]([C@@H](C)O)NC(=O)[C@H](CC(N)=O)NC(=O)[C@@H](NC(C)=O)C(C)(C)SSC(C)(C)[C@@H](C(=O)N[C@@H](Cc2ccc(OCCN)cc2)C(=O)N[C@@H](Cc2ccc3ccccc3c2)C(=O)NC2(C(=O)N[C@@H](CCC(=O)O)C(=O)N[C@@H](CC(N)=O)C(=O)N[C@@H](Cc3cccnc3)C(=O)N(C)CC(N)=O)CCOCC2)NC1=O [IL-23 receptor antagonist peptide, Ac-[Pen]*-N-T-[W(7-Me)]-[Lys(Ac)]-[Pen]*-Phe[4-(2-aminoethoxy)]-[2-Nal]-[THP]-E-N-[3-Pal]-Sarc-NH2 (*[Pen]-[Pen]* formdisulfidebond)]
Ketonuria: number of subjects (25 mg BID, through Week 56): 0
Leukocyturia: number of subjects (25 mg BID, through Week 56): 0
Leukopenia: number of subjects (25 mg BID, through Week 56): 0
Libido decreased: number of subjects (25 mg BID, through Week 56): 0
Liver disorder: number of subjects (25 mg BID, through Week 56): 0
Lymphopenia: number of subjects (25 mg BID, through Week 56): 0
Menopause: number of subjects (25 mg BID, through Week 56): 0
Metabolism and nutrition disorders: % of subjects (25 mg BID, through Week 56): (7.3%)
Metabolism and nutrition disorders: number of subjects (25 mg BID, through Week 56): 3
Neoplasms benign, malignant and unspecified (incl cysts and polyps): % of subjects (25 mg BID, through Week 56): (2.4%)
Neoplasms benign, malignant and unspecified (incl cysts and polyps): number of subjects (25 mg BID, through Week 56): 1
Nephrolithiasis: number of subjects (25 mg BID, through Week 56): 0
Neutropenia: number of subjects (25 mg BID, through Week 56): 0
Night sweats: number of subjects (25 mg BID, through Week 56): 0
Non-cardiac chest pain: number of subjects (25 mg BID, through Week 56): 0
Ocular cyst: number of subjects (25 mg BID, through Week 56): 0
Oedema peripheral: number of subjects (25 mg BID, through Week 56): 0
Oropharyngeal pain: number of subjects (25 mg BID, through Week 56): 0
Procedural pain: number of subjects (25 mg BID, through Week 56): 0
Productive cough: number of subjects (25 mg BID, through Week 56): 0
Proteinuria: number of subjects (25 mg BID, through Week 56): 0
Pruritus: number of subjects (25 mg BID, through Week 56): 0
Psoriasis: % of subjects (25 mg BID, through Week 56): (2.4%)
Psoriasis: number of subjects (25 mg BID, through Week 56): 1
Psychiatric disorders: % of subjects (25 mg BID, through Week 56): (2.4%)
Psychiatric disorders: number of subjects (25 mg BID, through Week 56): 1
Pyrexia: number of subjects (25 mg BID, through Week 56): 0
Rash pruritic: number of subjects (25 mg BID, through Week 56): 0
Renal and urinary disorders: number of subjects (25 mg BID, through Week 56): 0
Renal mass: number of subjects (25 mg BID, through Week 56): 0
Respiratory, thoracic and mediastinal disorders: % of subjects (25 mg BID, through Week 56): (2.4%)
Respiratory, thoracic and mediastinal disorders: number of subjects (25 mg BID, through Week 56): 1
Retinal vein occlusion: number of subjects (25 mg BID, through Week 56): 0
Rhinorrhoea: number of subjects (25 mg BID, through Week 56): 0
Seasonal allergy: number of subjects (25 mg BID, through Week 56): 0
Skin and subcutaneous tissue disorders: % of subjects (25 mg BID, through Week 56): (4.9%)
Skin and subcutaneous tissue disorders: number of subjects (25 mg BID, through Week 56): 2
Skin laceration: number of subjects (25 mg BID, through Week 56): 0
Skin papilloma: number of subjects (25 mg BID, through Week 56): 0
Social circumstances: number of subjects (25 mg BID, through Week 56): 0
Steatohepatitis: number of subjects (25 mg BID, through Week 56): 0
Subjects with AE leading to discontinuation: Abdominal discomfort (25 mg BID, through Week 56): 0
Subjects with AE leading to discontinuation: Abdominal pain (25 mg BID, through Week 56): 0
Subjects with AE leading to discontinuation: Alanine aminotransferase increased (25 mg BID, through Week 56): 0
Subjects with AE leading to discontinuation: Aspartate aminotransferase increased (25 mg BID, through Week 56): 0
Subjects with AE leading to discontinuation: Ear and labyrinth disorders (25 mg BID, through Week 56): 0
Subjects with AE leading to discontinuation: Gamma-glutamyltransferase increased (25 mg BID, through Week 56): 0
Subjects with AE leading to discontinuation: Investigations (25 mg BID, through Week 56): 0
Subjects with AE leading to discontinuation: Nausea (25 mg BID, through Week 56): 0
Subjects with AE leading to discontinuation: Suicide attempt (25 mg BID, through Week 56): 0
Subjects with AE leading to discontinuation: Transaminases increased (25 mg BID, through Week 56): 0
Subjects with AE leading to discontinuation: Vertigo (25 mg BID, through Week 56): 0
Subjects with AE leading to discontinuation: Vomiting (25 mg BID, through Week 56): 0
Subjects with AE leading to discontinuation: Weight increased (25 mg BID, through Week 56): 0
Subjects with COVID-19 associated AE: SARS-CoV-2 test positive (25 mg BID, through Week 56): 0
Subjects with treatment-emergent AE: Arthralgia (25 mg BID, through Week 56): 0
Subjects with treatment-emergent AE: Cough (25 mg BID, through Week 56): 0
Subjects with treatment-emergent AE: Nasopharyngitis (25 mg BID, through Week 56): 8
Subjects with treatment-emergent serious AE: COVID-19 (25 mg BID, through Week 56): 0
Subjects with treatment-emergent serious AE: Cerebrovascular accident (25 mg BID, through Week 56): 0
Subjects with treatment-emergent serious AE: Coronary artery disease (25 mg BID, through Week 56): 0
Subjects with treatment-emergent serious AE: Diverticulitis (25 mg BID, through Week 56): 0
Subjects with treatment-emergent serious AE: Foot deformity (25 mg BID, through Week 56): 0
Subjects with treatment-emergent serious AE: General disorders and administration site conditions (25 mg BID, through Week 56): 0
Subjects with treatment-emergent serious AE: Infected cyst (25 mg BID, through Week 56): 0
Subjects with treatment-emergent serious AE: Infections and infestations (25 mg BID, through Week 56): 0
Subjects with treatment-emergent serious AE: Intervertebral disc protrusion (25 mg BID, through Week 56): 0
Subjects with treatment-emergent serious AE: Musculoskeletal and connective tissue disorders (25 mg BID, through Week 56): 0
Subjects with treatment-emergent serious AE: Neoplasms benign, malignant and unspecified (incl cysts and polyps) (25 mg BID, through Week 56): 0
Subjects with treatment-emergent serious AE: Nervous system disorders (25 mg BID, through Week 56): 0
Subjects with treatment-emergent serious AE: Non-cardiac chest pain (25 mg BID, through Week 56): 0
Subjects with treatment-emergent serious AE: Psychiatric disorders (25 mg BID, through Week 56): 0
Subjects with treatment-emergent serious AE: Suicide attempt (25 mg BID, through Week 56): 0
Subjects with treatment-emergent serious AE: Uterine leiomyoma (25 mg BID, through Week 56): 0
Suicide attempt: number of subjects (25 mg BID, through Week 56): 0
Sunburn: % of subjects (25 mg BID, through Week 56): (2.4%)
Sunburn: number of subjects (25 mg BID, through Week 56): 1
Thrombocytopenia: number of subjects (25 mg BID, through Week 56): 0
Thrombocytosis: number of subjects (25 mg BID, through Week 56): 0
Tonsillar hypertrophy: % of subjects (25 mg BID, through Week 56): (2.4%)
Tonsillar hypertrophy: number of subjects (25 mg BID, through Week 56): 1
Tooth fracture: number of subjects (25 mg BID, through Week 56): 0
Type 2 diabetes mellitus: number of subjects (25 mg BID, through Week 56): 0
Urinary tract disorder: number of subjects (25 mg BID, through Week 56): 0
Uterine leiomyoma: number of subjects (25 mg BID, through Week 56): 0
Vascular disorders: % of subjects (25 mg BID, through Week 56): (4.9%)
Vascular disorders: number of subjects (25 mg BID, through Week 56): 2
Ventricular dysfunction: % of subjects (25 mg BID, through Week 56): (2.4%)
Ventricular dysfunction: number of subjects (25 mg BID, through Week 56): 1
Vertigo: number of subjects (25 mg BID, through Week 56): 0
Vitamin D deficiency: % of subjects (25 mg BID, through Week 56): (2.4%)
Vitamin D deficiency: number of subjects (25 mg BID, through Week 56): 1
Number of subjects with treatment-emergent AE: Cholelithiasis [1]: 0
Number of subjects with treatment-emergent AE: Ear and labyrinth disorders [1]: 1
Number of subjects with treatment-emergent AE: Endocrine disorders [1]: 0
Number of subjects with treatment-emergent AE: Eye disorders [1]: 0
Number of subjects with treatment-emergent AE: Eyelid skin dryness [1]: 0
Number of subjects with treatment-emergent AE: Goiter [1]: 0
Number of subjects with treatment-emergent AE: Hepatobiliary disorders [1]: 0
Number of subjects with treatment-emergent AE: Hypertransaminasemia [1]: 0
Number of subjects with treatment-emergent AE: Immune system disorders [1]: 0
Number of subjects with treatment-emergent AE: Insomnia [1]: 0
Number of subjects with treatment-emergent AE: Ocular cyst [1]: 0
Number of subjects with treatment-emergent AE: Psychiatric disorders [1]: 0
Number of subjects with treatment-emergent AE: Retinal vein occlusion [1]: 0
Number of subjects with treatment-emergent AE: Seasonal allergy [1]: 0
Number of subjects with treatment-emergent AE: Vertigo [1]: 1
Subjects with treatment-emergent AE: Ear and labyrinth disorders (%) [1]: (2.9%)
Subjects with treatment-emergent AE: Vertigo (%) [1]: (2.9%)
Acrochordon: number of subjects (25 mg QD, through Week 56): 0
Actinic keratosis: number of subjects (25 mg QD, through Week 56): 0
Alopecia: % of subjects (25 mg QD, through Week 56): (2.3%)
Alopecia: number of subjects (25 mg QD, through Week 56): 1
Asthenia: number of subjects (25 mg QD, through Week 56): 0
Asthma: number of subjects (25 mg QD, through Week 56): 0
Atrioventricular block first degree: number of subjects (25 mg QD, through Week 56): 0
Basal cell carcinoma: number of subjects (25 mg QD, through Week 56): 0
Blood and lymphatic system disorders: % of subjects (25 mg QD, through Week 56): (2.3%)
Blood and lymphatic system disorders: number of subjects (25 mg QD, through Week 56): 1
Bronchitis chronic: number of subjects (25 mg QD, through Week 56): 0
Bundle branch block right: number of subjects (25 mg QD, through Week 56): 0
